Earlier results as cited in patent publication US8586580B2, “2,7-substituted thieno[3,2-d] pyrimidine compounds as protein kinase inhibitors” (Korea Institute of Science and Technology, priority 2009, dated 2013).

System: PC-3, BT-474, LoVo, NCI-H460, U-87 MG and BxPC-3 human tumor xenografts
Settings: in vivo

## CN(c1ncccc1CNc1nc(Nc2ccc3c(c2)CC(=O)N3)ncc1C(F)(F)F)S(C)(=O)=O [PF-562271]
  toxicity: No special toxicity has been observed
